Data set [1] is described as follows: Spectral response of the probe to solution viscosity (glycerol/MeOH). Conditions: viscosity increased from 1.4 cp to 955 cp by glycerol/MeOH volume ratio. The format is physicochemical. From the text: Therefore, it may be concluded that the fluorescence intensity of TzAr-Nap-OH may be used as a reliable indicator for a quantitative viscosity sensor.
Data set [2] can be described thus: Effect of solution pH on probe fluorescence in PBS/THF (4/1). It is filed as physicochemical. The settings on record: pH range 1.64 to 11.45. The protocol: 20 μL of the fluorescent probe stock solution were taken and added dropwise into a PBS/THF (4/1) system, resulting in a final volume of 2 mL.
A short description of data set [3]: Effect of interfering substances on probe fluorescence in PBS/THF (4/1). It is filed as physicochemical. The settings on record: 10 μM interfering substances. How it is done:
20 μL of the fluorescent probe stock solution were taken and added dropwise into the PBS/THF (4/1) system, into which 10 μM of other interfering substance solutions were added dropwise, resulint in a final volume is 2 mL. Other interfering substances had little effect on the fluorescence intensity of TzAr-Nap-OH.

The subject of data set [4] is HeLa cells. As to the kind of experiment: MTT cytotoxicity experiment. It is filed as cell-based. The settings on record: 0-20 μM probe, 24 hours.
Data set [5] relates to HeLa cells. Description: Cell imaging of response to viscosity (monensin-treated cells). It is filed as cell-based. The settings on record: probe 10 μM, 30 min, λex=360 nm. The protocol:
FIG. 9 is a fluorescence image of Hela cells; (a-c) HeLa cells were cultured with TzAr-Nap-OH (10 μM) for 30 minutes; (d-f) HeLa cells were treated with monensin (Mo) and incubated with the TzAr-Nap-OH probe for 30 minutes; λex=360 nm, slit=5 nm, scale bar=20 μm.
Images a-c were obtained by treating HeLa cells with TzAr-Nap-OH (10 μM) for 30 mins. HeLa cells were first treated with monensin to increase cell viscosity, and then treated with TzAr-Nap-OH (10 μM) to obtain images d-f.

`Oc1ccc2cc(/C=C/c3nc(-c4ccccc4)nc(-c4ccccc4)n3)ccc2c1` [TzAr-Nap-OH]: in data set [1], the “increase of fluorescence intensity at 520 nm” value is roughly 15 times. Besides, the “change of fluorescence intensity with pH” value in data set [2] is “did not change significantly”. For the same compound, the “effect of other interfering substances on fluorescence intensity” value in data set [3] is listed as “little effect”. For the same compound, the “survival rate (cell viability)” value in the data set on HeLa cells [4] is given as “over 81%”. Also, the “fluorescence intensity of monensin-treated cells versus normal cells” value with HeLa cells [5] is listed as “significantly higher”.

(Values after patent US20240302280A1, “PREPARATION METHOD AND APPLICATION OF VISCOSITY FLUORESCENT PROBE” (Zhengzhou University of Light Industry, priority 2023, published 2024).)
